Counter-ions that a name gives are not always drawn.

The assay deals with T1, HiBiT tagged PARP14 (Homo sapiens, UniProt Q460N5).
T1 construct: engineered to contain a HiBiT tag on both alleles of the PARP14 gene; endogenous in cells; host or cells: Jurkat cells stably transfected with LgBiT (Promega), PARP14 locus edited by CRISPR/Cas9
T1 sequence (Q460N5 whole entry): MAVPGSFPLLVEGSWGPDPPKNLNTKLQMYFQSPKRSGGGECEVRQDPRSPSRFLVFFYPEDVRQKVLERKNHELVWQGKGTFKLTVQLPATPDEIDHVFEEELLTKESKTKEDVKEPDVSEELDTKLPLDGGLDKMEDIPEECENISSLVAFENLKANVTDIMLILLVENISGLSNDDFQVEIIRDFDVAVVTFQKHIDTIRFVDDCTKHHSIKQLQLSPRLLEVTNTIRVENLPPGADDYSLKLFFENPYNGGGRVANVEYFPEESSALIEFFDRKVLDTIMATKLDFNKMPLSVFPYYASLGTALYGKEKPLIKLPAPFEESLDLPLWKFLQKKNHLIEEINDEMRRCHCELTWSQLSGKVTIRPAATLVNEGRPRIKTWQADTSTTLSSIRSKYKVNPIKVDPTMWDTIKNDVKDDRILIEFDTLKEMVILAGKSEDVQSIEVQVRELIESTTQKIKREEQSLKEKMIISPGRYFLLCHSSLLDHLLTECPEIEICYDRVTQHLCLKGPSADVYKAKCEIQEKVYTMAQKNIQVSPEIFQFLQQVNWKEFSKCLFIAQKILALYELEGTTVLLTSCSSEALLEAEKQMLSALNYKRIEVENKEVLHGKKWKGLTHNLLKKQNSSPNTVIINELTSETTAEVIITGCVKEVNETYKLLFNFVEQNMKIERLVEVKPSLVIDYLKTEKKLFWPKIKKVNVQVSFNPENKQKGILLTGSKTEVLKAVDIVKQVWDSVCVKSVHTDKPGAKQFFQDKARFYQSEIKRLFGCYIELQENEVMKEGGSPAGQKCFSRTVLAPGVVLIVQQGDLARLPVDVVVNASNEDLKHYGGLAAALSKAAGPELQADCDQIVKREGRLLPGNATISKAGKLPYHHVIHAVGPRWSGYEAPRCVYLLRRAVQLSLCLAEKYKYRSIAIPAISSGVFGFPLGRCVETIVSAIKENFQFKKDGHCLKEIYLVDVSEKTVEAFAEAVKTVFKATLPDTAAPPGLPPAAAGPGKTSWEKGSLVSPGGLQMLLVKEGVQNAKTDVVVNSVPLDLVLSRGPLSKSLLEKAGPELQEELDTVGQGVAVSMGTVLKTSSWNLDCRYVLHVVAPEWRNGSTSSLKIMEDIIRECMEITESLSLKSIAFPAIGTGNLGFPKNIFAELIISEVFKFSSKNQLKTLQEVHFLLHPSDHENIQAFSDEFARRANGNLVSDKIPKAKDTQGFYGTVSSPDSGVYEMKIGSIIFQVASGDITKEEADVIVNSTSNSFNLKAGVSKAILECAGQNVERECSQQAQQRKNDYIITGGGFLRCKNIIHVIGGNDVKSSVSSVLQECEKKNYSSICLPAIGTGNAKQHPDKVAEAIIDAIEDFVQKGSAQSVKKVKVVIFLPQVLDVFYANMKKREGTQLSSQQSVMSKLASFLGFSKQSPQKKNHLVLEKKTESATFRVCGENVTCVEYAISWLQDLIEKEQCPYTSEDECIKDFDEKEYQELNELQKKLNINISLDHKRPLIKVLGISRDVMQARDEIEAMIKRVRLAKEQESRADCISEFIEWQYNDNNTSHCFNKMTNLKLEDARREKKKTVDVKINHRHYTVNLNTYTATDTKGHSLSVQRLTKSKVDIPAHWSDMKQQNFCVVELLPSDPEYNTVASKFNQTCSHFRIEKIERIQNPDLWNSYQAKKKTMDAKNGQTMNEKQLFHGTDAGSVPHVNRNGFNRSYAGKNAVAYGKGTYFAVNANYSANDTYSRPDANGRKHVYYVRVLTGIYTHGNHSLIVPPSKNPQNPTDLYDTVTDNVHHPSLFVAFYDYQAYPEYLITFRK
Put plainly: HiBiT assay for the degradation of PARP14 (HiBiT tagged PARP14 in LgBiT expressing Jurkat cells, 2 or 24 hours). The note with it: Assay B (Example B): HiBiT tagged PARP14 degradation in LgBiT expressing Jurkat cells, read-out: DC50. The assay is classed as cell-based. In short, it runs like this: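 Luminescence from HiBiT–LgBiT complementation served as proxy for endogenous PARP14 level in edited LgBiT Jurkat cells (5,000/well). After 2 or 24 h compound exposure at 37 °C, signal read with Live Cell Substrate, expressed as % of 0.1% DMSO control, and fitted (4-parameter, free Hill) for DC50.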
(The HiBiT peptide binds its large partner to form an active luciferase.)
As a reminder, the DC50 is the midpoint of the concentration-degradation curve. Consider `Cn1nc(N2CCC(=O)NC2=O)c2ccc(C3CCN(CCOc4cc(F)c5c(=O)[nH]c(CSC6CCOCC6)nc5c4)CC3)cc21` [Example 186, 1-(6-(1-(2-((5-fluoro-4-oxo-2-(((tetrahydro-2H-pyran-4-yl)thio)methyl)-3,4-dihydroquinazolin-7-yl)oxy)ethyl)piperidin-4-yl)-1-methyl-1H-indazol-3-yl)dihydropyrimidine-2,4(1H,3H)-dione], for which the DC50 was less than 30 nM.
`O=C1CCC(Nc2ccc(N3CCC(C(=O)N4CCC(N5CCC(COc6cc(F)c7c(=O)[nH]c(CSC8CCOCC8)nc7c6)CC5)CC4)CC3)c(F)c2)C(=O)N1` (stereo not shown) [Example 173, 3-((3-fluoro-4-(4-(4-(((5-fluoro-4-oxo-2-(((tetrahydro-2H-pyran-4-yl)thio)methyl)-3,4-dihydroquinazolin-7-yl)oxy)methyl)-[1,4′-bipiperidine]-1′-carbonyl)piperidin-1-yl)phenyl)amino)piperidine-2,6-dione formate]: the DC50 was less than 30 nM.
Regarding `O=C1CCC(Nc2ccc(N3CCN(CCN4CCC(COc5cc(F)c6c(=O)[nH]c(CC7CCC7)nc6c5)CC4)CC3)c(F)c2)C(=O)N1` (stereo not shown) [Example 106, 3-((4-(4-(2-(4-(((2-(cyclobutylmethyl)-5-fluoro-4-oxo-3,4-dihydroquinazolin-7-yl)oxy)methyl)piperidin-1-yl)ethyl)piperazin-1-yl)-3-fluorophenyl)amino)piperidine-2,6-dione formate], the DC50 is less than 30 nM.
In the case of `O=C1CCC(Nc2ccc(N3CCC(O)(CC(=O)N4CCC(COc5cc(F)c6c(=O)[nH]c(CSC7CCOCC7)nc6c5)CC4)CC3)cc2F)C(=O)N1` (stereo not shown) [Example 170, 3-((2-fluoro-4-(4-(2-(4-(((5-fluoro-4-oxo-2-(((tetrahydro-2H-pyran-4-yl)thio)methyl)-3,4-dihydroquinazolin-7-yl)oxy)methyl)piperidin-1-yl)-2-oxoethyl)-4-hydroxypiperidin-1-yl)phenyl)amino)piperidine-2,6-dione], the DC50 is less than 30 nM.
As for `O=C1CCC(Nc2ccc(N3CCN(CCN4CCC(COc5cc(F)c6c(=O)[nH]c(CSC7CCOCC7)nc6c5)CC4)CC3)c(Cl)c2)C(=O)N1` (stereo not shown) [Example 137], the figure is less than 30 nM; as for `O=C1CCN(c2cnc3cc(N4CCC(N5CC(N6CCC(COc7cc(F)c8c(=O)[nH]c(CSC9CCOCC9)nc8c7)CC6)C5)CC4)ccn23)C(=O)N1` [Example 167, 1-(7-(4-(3-(4-(((5-fluoro-4-oxo-2-(((tetrahydro-2H-pyran-4-yl)thio)methyl)-3,4-dihydroquinazolin-7-yl)oxy)methyl)piperidin-1-yl)azetidin-1-yl)piperidin-1-yl)imidazo[1,2-a]pyridin-3-yl)dihydropyrimidine-2,4(1H,3H)-dione], less than 30 nM.
Regarding `O=C1CCC(Nc2ccc(F)c(N3CCC(N4CC(N5CCC(COc6cc(F)c7c(=O)[nH]c(CSC8CCOCC8)nc7c6)CC5)C4)CC3)c2)C(=O)N1` (stereo not shown) [Example 236, 3-((4-fluoro-3-(4-(3-(4-(((5-fluoro-4-oxo-2-(((tetrahydro-2H-pyran-4-yl)thio)methyl)-3,4-dihydroquinazolin-7-yl)oxy)methyl)piperidin-1-yl)azetidin-1-yl)piperidin-1-yl)phenyl)amino)piperidine-2,6-dione], the half-maximal degradation concentration (DC50) was less than 30 nM.
As for `O=C1CCC(Nc2ccc(N3CCC4(CCN(CCOc5cc(F)c6c(=O)[nH]c(CSC7CCOCC7)nc6c5)CC4)CC3)c(F)c2)C(=O)N1` (stereo not shown) [Example 215, 3-((3-fluoro-4-(9-(2-((5-fluoro-4-oxo-2-(((tetrahydro-2H-pyran-4-yl)thio)methyl)-3,4-dihydroquinazolin-7-yl)oxy)ethyl)-3,9-diazaspiro[5.5]undecan-3-yl)phenyl)amino)piperidine-2,6-dione], the figure is less than 30 nM; as for `O=C1CCC(Nc2ccc(N3CCC(N4CCN(CCOc5cc(F)c6c(=O)[nH]c(CSC7CCOCC7)nc6c5)CC4)CC3)cc2)C(=O)N1` (stereo not shown) [Example 125], less than 30 nM.
Turning to `Cn1nc(N2CCC(=O)NC2=O)c2cc(F)c(N3CCN(CCN4CCC(COc5cc(F)c6c(=O)[nH]c(CSC7CCOCC7)nc6c5)CC4)CC3)cc21` [Example 212, 1-(5-fluoro-6-(4-(2-(4-(((5-fluoro-4-oxo-2-(((tetrahydro-2H-pyran-4-yl)thio)methyl)-3,4-dihydroquinazolin-7-yl)oxy)methyl)piperidin-1-yl)ethyl)piperazin-1-yl)-1-methyl-1H-indazol-3-yl)dihydropyrimidine-2,4(1H,3H)-dione], the DC50 was less than 30 nM.
As for `O=C1CCC(Nc2ccc(N3CCC(N4CCC(COc5cc(F)c6c(=O)[nH]c(CCC7CCOCC7)nc6c5)CC4)CC3)c(F)c2)C(=O)N1` (single isomer, unassigned) [Example 117b, 3-((3-fluoro-4-(4-(((5-fluoro-4-oxo-2-(2-(tetrahydro-2H-pyran-4-yl)ethyl)-3,4-dihydroquinazolin-7-yl)oxy)methyl)-[1,4′-bipiperidin]-11′-yl)phenyl)amino)piperidine-2,6-dione], the DC50 is less than 30 nM.
For `O=C1CCC(Nc2ccc(NC(=O)C3CCN(CCN4CCC(COc5cc(F)c6c(=O)[nH]c(COC7CCOCC7)nc6c5)CC4)CC3)c(F)c2)C(=O)N1` (stereo not shown) [Example 201, N-(4-((2,6-dioxopiperidin-3-yl)amino)-2-fluorophenyl)-1-(2-(4-(((5-fluoro-4-oxo-2-(((tetrahydro-2H-pyran-4-yl)oxy)methyl)-3,4-dihydroquinazolin-7-yl)oxy)methyl)piperidin-1-yl)ethyl)piperidine-4-carboxamide] the value was less than 30 nM; for `O=C1CCC(Nc2ccc(N3CC(N4CC(N5CCC(COc6cc(F)c7c(=O)[nH]c(CSC8CCOCC8)nc7c6)CC5)C4)C3)c(F)c2)C(=O)N1` (stereo not shown) [Example 148, 3-((3-fluoro-4-(3-(4-(((5-fluoro-4-oxo-2-(((tetrahydro-2H-pyran-4-yl)thio)methyl)-3,4-dihydroquinazolin-7-yl)oxy)methyl)piperidin-1-yl)-[1,3′-biazetidin]-1′-yl)phenyl)amino)piperidine-2,6-dione formate], less than 30 nM; for `O=C1CCC(Nc2ccc(N3CC4(CCC(N5CCC(COc6cc(F)c7c(=O)[nH]c(CSC8CCOCC8)nc7c6)CC5)CC4)C3)cc2)C(=O)N1` (stereo not shown) [Example 138], less than 30 nM.
For `O=C1CCC(Nc2ccc(N3CCC(N4CCC(COc5cc(F)c6c(=O)[nH]c(CCC7CCOCC7)nc6c5)CC4)CC3)c(F)c2)C(=O)N1` (stereo not shown) [Example 117, 3-((3-fluoro-4-(4-(((5-fluoro-4-oxo-2-(2-(tetrahydro-2H-pyran-4-yl)ethyl)-3,4-dihydroquinazolin-7-yl)oxy)methyl)-[1,4′-bipiperidin]-11′-yl)phenyl)amino)piperidine-2,6-dione] the value was less than 30 nM; for `O=C1CCC(Nc2ccc(N3CCC(CN4CCC(N5CCC(COc6cc(F)c7c(=O)[nH]c(CSC8CCOCC8)nc7c6)CC5)CC4)CC3)c(F)c2)C(=O)N1` (stereo not shown) [Example 231, 3-((3-fluoro-4-(4-((4-(((5-fluoro-4-oxo-2-(((tetrahydro-2H-pyran-4-yl)thio)methyl)-3,4-dihydroquinazolin-7-yl)oxy)methyl)-[1,4′-bipiperidin]-1′-yl)methyl)piperidin-1-yl)phenyl)amino)piperidine-2,6-dione], less than 30 nM.
